Test results as given in patent EP2093288A1, “NOVEL DIPEPTIDE-DIGESTING ENZYME, METHOD OF PRODUCING THE SAME, METHOD OF ASSAYING GLYCATED PROTEIN BY USING THE DIPEPTIDE-DIGESTING ENZYME AND REAGENT COMPOSITION TO BE USED THEREIN” (Amano Enzyme Inc., priority 2006, dated 2008).
Like-named read-outs stand apart in the source and are kept apart here. Non-standard residues stand in square brackets, D forms with d. Residues, ends and D or L forms follow the SMILES beside them. *: point of attachment. Sta = CC(C)C[C@H](N)[C@@H](O)CC(=O)O; Isovaleryl = CC(C)CC(=O)*

How the values were obtained:
Type in all cases: biochemical, Sphingopyxis chilensis No. 0522
[1] = system: dipeptide-degrading enzyme; test: Influence of metal ions and the like on enzymatic activity (dipeptide-degrading activity, Example 3 method)
Protocol: (§1) The dipeptide-degrading activity may be measured by quantifying Fru-Val or histidine formed upon the degradation of Fru-Val-His. The method for quantifying histidine is described below. The amount of enzyme degrading 1 µmol of Fru-Val-His in 1 minute is defined as 1 unit of enzymatic activity (U). The reagents (1), (2), and (3), and a substrate solution used for measuring the activity were prepared as described below.
(§2) Substrate solution: Fru-Val-His (Peptide Institute Inc.) was dissolved in 100 mM of a MOPS buffer (pH 7.0), thus obtaining 40 mM of substrate solution.
0.02 mL of 1.40 mM substrate solution and 0.16 mL of the reagent (1) were accurately dispensed and mixed, and preincubated at 37°C for 5 minutes. Thereafter, 0.02 mL of enzyme solution was accurately added to and mixed with the mixture, and allowed to react at 37°C. As a blank test, 0.02 mL of the reagent (1) was added in place of the enzyme solution. After a lapse of 10 minutes, 0.8 mL of the reagent (3) was accurately added to and mixed with the mixture, and allowed to react at 37°C. After a lapse of 15 minutes, the absorbance at 505 nm was measured, and the dipeptide-degrading activity was calculated according to the calculation formula described below. The enzyme solution was appropriately diluted with the reagent (1) such that ΔABS = (As-Ab) ≤ 0.50 Abs, and used as the sample. The symbols and numerical values in the calculation formula represents the followings. • As: absorbance of enzyme solution • Ab: absorbance of blank solution • ΔABS: As - Ab • 12.88: millimole absorptivity (mmol/L/cm) of quinone pigment at 505 nm • 10: reaction time (min) • 2: coefficient representing that one molecule of quinone pigment is formed from two molecules of H2O2 • 1: light path length (cm) • 1.0: total amount of reaction solution (mL) • 0.02: Amount of enzyme solution used for reaction (mL) • n: enzyme solution dilution ratio
Calculation formula Activity(U/mL) = ΔABS/10/12.88 × 2 × 1 × 1.0/0.02 × n [formula]
The enzymatic activity was measured in the same manner as Example 3, except that the reagent (1) was replaced with various metals and the like at specified concentrations (Table 2) and a 100 mM PIPES buffer (pH 6.2) containing 0.1% Triton X-100.

[2] = system: dipeptide-degrading enzyme; test: Reactivity in actual measurement system for glycosylated dipeptide (Example 15 method, reagents E, B, C, absorbance at 555 nm)
Protocol: A glycosylated dipeptide was measured using a glycosylated hemoglobin β chain dipeptide Fru-Val-His (Peptide Institute Inc.). The reagents B and C were prepared according to the following recipes, and used for the study. Since the specimen was a glycosylated dipeptide, no protease was necessary. Therefore, the reagent E used herein had the same composition with the reagent A except that no protease was used. However, the glycosylated dipeptide may be quantified only with the reagents B and C without using the reagent E. The dipeptide-degrading enzyme used herein is the purified enzyme obtained in Example 6.
40 mM Fru-Val-His was prepared, and diluted with a 100 mM MOPS buffer (pH 7.0), thus making 0.1, 0.2, 0.4, 0.6, and 0.8 mM Fru-Val-His solutions. To 0.01 mL each of the diluting solutions, 0.04 mL of the reagent E was added, and allowed to react at 37°C for 5 minutes. 0.1 mL of the reagent B was added to each of the reaction liquids, and allowed to react at 37°C for 10 minutes. Thereafter, 0.9 mL of the reagent C was added to each of the reaction liquids, and allowed to react at 37°C. The absorbance at 555 nm was measured, and the increase (ΔOD) of the absorbance 5 minutes after initiation of the reaction was determined. […]

[3] = system: dipeptide-degrading enzyme; test: Substrate specificity: dipeptide-degrading activity measurement of Example 3 with changed substrate; details: substrate changed from Fru-Val-His; 37°C, pH 6.2
Protocol: as §1, §2
0.02 mL of 1.40 mM substrate solution and 0.16 mL of the reagent (1) were accurately dispensed and mixed, and preincubated at 37°C for 5 minutes. Thereafter, 0.02 mL of enzyme solution was accurately added to and mixed with the mixture, and allowed to react at 37°C. As a blank test, 0.02 mL of the reagent (1) was added in place of the enzyme solution. After a lapse of 10 minutes, 0.8 mL of the reagent (3) was accurately added to and mixed with the mixture, and allowed to react at 37°C. After a lapse of 15 minutes, the absorbance at 505 nm was measured, and the dipeptide-degrading activity was calculated according to the calculation formula described below. The enzyme solution was appropriately diluted with the reagent (1) such that ΔABS = (As-Ab) ≤ 0.50 Abs, and used as the sample. […]

[4] = Conc. 2mM, 100 mM PIPES buffer (pH 6.2), 0.1% Triton X-100, None = 100
[5] = Conc. 1mM, 100 mM PIPES buffer (pH 6.2), 0.1% Triton X-100, None = 100
[6] = Conc. 50mM, 100 mM PIPES buffer (pH 6.2), 0.1% Triton X-100, None = 100

Row | Compound | Relative activity (%) [1, 4] | Relative activity (%) [1, 5] | also measured
1 | OCCS [2-Mercaptoethanol] | 11% | – | –
2 | [Ba+2].[Cl-].[Cl-] [BaCl2] | – | 105% | –
3 | [Ca+2].[Cl-].[Cl-] [CaCl2] | – | 162% | –
4 | [Cl-].[Cl-].[Co+2] [CoCl2] | – | 676% | influences of the metal ions and the like on the enzymatic activity ([1]; summary in words of Table 2): activated
5 | [Cl][Cu][Cl] [CuCl2] | – | 75% | –
6 | O=C(O)CN(CCN(CC(=O)O)CC(=O)O)CC(=O)O [EDTA] | – | – | influences of the metal ions and the like on the enzymatic activity [1]: deactivated; Relative activity (%) ([1]; pH 6.2, 5000 µM): 1%
7 | CC(C)C[C@H](NC(=O)[C@@H](NCC(=O)[C@@H](O)[C@H](O)[C@H](O)CO)C(C)C)C(=O)O [Fru-Val-Leu, fructosyl valyl leucine] | – | – | absorbance change converted into the Fru-Val-His concentration ([2]; 0.8 mM substrate, converted using Fig. 7): 0.14 mM; reactivity ([2]; for the 0.8 mM substrate, relative to Fru-Val-His): 18%; activity value of the dipeptide-degrading enzyme for the substrate, relative to that for Fru-Val-His [3]: 4.9%
8 | [Cl-].[Cl-].[Mg+2] [MgCl2] | – | 261% | influences of the metal ions and the like on the enzymatic activity ([1]; summary in words of Table 2): activated
9 | [Cl][Mn][Cl] [MnCl2] | – | 137% | –
10 | O=C(O)CI [Monoiode acetate] | – | – | Relative activity (%) ([1]; pH 6.2, 2000 µM): 111%
11 | [Cl][Ni][Cl] [NiCl2] | – | 156% | –
12 | O=S(=O)(F)Cc1ccccc1 [PMSF] | 97% | – | –
13 | CC(C)CC(=O)N[C@H](C(=O)N[C@H](C(=O)N[C@@H](CC(C)C)[C@@H](O)CC(=O)N[C@@H](C)C(=O)N[C@@H](CC(C)C)[C@@H](O)CC(=O)O)C(C)C)C(C)C [Pepstatin A] (Isovaleryl-VV[Sta]A[Sta]-OH) | – | – | Relative activity (%) ([1]; Conc. 10 µg/ml, 100 mM PIPES buffer (pH 6.2), 0.1% Triton X-100, None = 100): 100%
14 | CCCCCCCCCCCCOS(=O)(=O)O [SDS] | 9% | – | –
15 | O=P1([O-])OP(=O)([O-])OP(=O)([O-])OP(=O)([O-])OP(=O)([O-])OP(=O)([O-])O1.[Na+].[Na+].[Na+].[Na+].[Na+].[Na+] [Sodium Hexametaphosphate] | 4% | – | –
16 | O=C(O)CS [Thioglycolic acid] | 3% | – | –
17 | [Cl-].[Cl-].[Zn+2] [ZnCl2] | – | 257% | influences of the metal ions and the like on the enzymatic activity ([1]; summary in words of Table 2): activated
18 | c1cnc2c(c1)ccc1cccnc12 [o-Phenanthroline] | 0% | – | –
19 | c1ccc(-c2ccccn2)nc1 [α, α'-Dipyridyl] | 1% | – | influences of the metal ions and the like on the enzymatic activity ([1]; summary in words of Table 2): deactivated
20 | KCl | – | – | Relative activity (%) [1, 6]: 97%
21 | NH4Cl | – | – | Relative activity (%) [1, 6]: 85%
22 | NaCl | – | – | Relative activity (%) ([1]; pH 6.2, 50000 µM): 98%
